Series [1] concerns the target T1, 5-hydroxytryptamine receptor 1B (Homo sapiens, UniProt P28222). The series can be described thus: Displacement of [3H]5HT from human 5HT1B receptor expressed in CHO cells. The class given is cell-based. In general terms: Displacement assays read how much labelled ligand stays bound in the presence of the test substance.
For series [2], the target named is T2, 5-hydroxytryptamine receptor 1D (Homo sapiens, UniProt P28221). Put plainly: Displacement of 3H]5HT from human 5HT1D receptor expressed in CHO cells. It counts as cell-based.
T2 sequence (P28221 whole entry): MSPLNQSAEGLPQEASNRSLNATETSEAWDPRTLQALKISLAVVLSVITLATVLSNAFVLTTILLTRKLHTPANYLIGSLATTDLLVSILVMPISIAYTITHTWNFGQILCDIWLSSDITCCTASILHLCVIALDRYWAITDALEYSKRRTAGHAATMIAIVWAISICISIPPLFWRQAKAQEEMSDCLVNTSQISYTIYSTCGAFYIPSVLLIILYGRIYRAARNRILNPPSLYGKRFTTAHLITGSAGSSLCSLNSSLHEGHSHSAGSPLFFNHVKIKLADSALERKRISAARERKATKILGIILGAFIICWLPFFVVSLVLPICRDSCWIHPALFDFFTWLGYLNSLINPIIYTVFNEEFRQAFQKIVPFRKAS
Series [3] has as its target T3, 5-hydroxytryptamine receptor 1A (Homo sapiens, UniProt P08908).
T3 sequence (P08908 whole entry): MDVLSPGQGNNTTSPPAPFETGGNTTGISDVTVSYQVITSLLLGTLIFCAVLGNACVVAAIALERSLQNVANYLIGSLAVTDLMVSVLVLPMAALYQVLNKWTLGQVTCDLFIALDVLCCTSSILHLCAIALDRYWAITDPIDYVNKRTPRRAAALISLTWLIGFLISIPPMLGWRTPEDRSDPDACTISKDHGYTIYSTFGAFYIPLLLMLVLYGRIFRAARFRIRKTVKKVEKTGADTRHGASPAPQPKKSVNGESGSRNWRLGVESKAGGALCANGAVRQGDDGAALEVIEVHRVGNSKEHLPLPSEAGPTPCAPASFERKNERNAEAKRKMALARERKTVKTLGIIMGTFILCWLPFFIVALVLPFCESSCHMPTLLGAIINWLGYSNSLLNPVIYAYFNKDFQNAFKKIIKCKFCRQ
Put plainly: Displacement of [125I]WAY100635 from human 5HT1A receptor expressed in CHO cells. The class given is cell-based.

The target of series [4] is T1, 5-hydroxytryptamine receptor 1B. Put plainly: Intrinsic activity at human 5HT1B receptor expressed in CHO cells by [35S]GTPgammaS binding assay. It counts as functional, cell-based. A general note: Binding of GTPγS marks nucleotide exchange on a G protein.
Series [5] concerns the target T2, 5-hydroxytryptamine receptor 1D. Put plainly: Intrinsic activity at human 5HT1D receptor expressed in CHO cells by [35S]GTPgammaS binding assay. It counts as functional, cell-based.
The target of series [6] is T4, 5-hydroxytryptamine receptor 1A (Homo sapiens) (UniProt P08908).
T4 sequence (whole entry): T3 sequence (P08908 whole entry)
Put plainly: Intrinsic activity at human 5HT1A receptor expressed in CHO cells by [35S]GTPgammaS binding assay. The class given is functional, cell-based.

The target in series [7] is T4, 5-hydroxytryptamine receptor 1A (Homo sapiens). Put plainly: Inverse agonist activity at human 5HT1A receptor expressed in CHO cells. It counts as functional, cell-based.
Series [8] is described as follows: Metabolic stability in human microsomes assessed as intrinsic clearance. The class given is ADME, Microsome.
Series [9] is described as follows: Cmax in rat brain at 3 mg/kg, po. Further details: dose 3 mg/kg, route oral. The class given is ADME, organism-based.
A short description of series [10]: Metabolic stability in rat microsomes assessed as intrinsic clearance. It counts as ADME, Microsome.
The nature of series [11]: Half life in rat at 1 mg/kg, iv. Further details: dose 1 mg/kg, route intravenous. The settings on record: in vivo. It counts as ADME, organism-based.
Series [12] can be described thus: Ratio of drug level in brain to blood in rat at 3 mg/kg, po. The class given is ADME, organism-based. More on the design: dose 3 mg/kg, route oral. Particulars: read-out: BBR.
Series [13] in a line: Volume of distribution at steady state rat. It counts as ADME, organism-based. Particulars: in vivo, read-out: Vdss.
Series [14] can be described thus: Clearance in rat blood at 1 mg/kg, iv. Further details: dose 1 mg/kg, route intravenous. The class given is ADME, organism-based.

SMILES strings stand for the structures. Active and inactive are the calls of the source. No cut-off for these calls is given here.

T1 sequence (P28222 whole entry): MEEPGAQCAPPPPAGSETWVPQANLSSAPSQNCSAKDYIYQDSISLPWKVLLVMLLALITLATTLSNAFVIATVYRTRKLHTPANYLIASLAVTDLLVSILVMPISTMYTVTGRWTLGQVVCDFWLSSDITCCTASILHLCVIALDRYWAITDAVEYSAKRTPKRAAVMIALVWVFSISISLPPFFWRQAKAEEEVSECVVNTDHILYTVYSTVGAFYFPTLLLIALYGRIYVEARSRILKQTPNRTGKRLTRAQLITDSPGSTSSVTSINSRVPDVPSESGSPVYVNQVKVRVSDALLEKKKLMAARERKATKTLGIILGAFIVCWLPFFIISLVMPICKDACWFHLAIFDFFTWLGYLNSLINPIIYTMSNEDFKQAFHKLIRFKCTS

In general, Ki refers to a dissociation constant, usually derived from enzyme kinetics or from competition with a known ligand. Turning to `CC(=O)N1CCC(c2cccc(CC3CCN(CCOc4cccc5nc(C)ccc45)CC3)c2)CC1`, the Ki is 158 nM in series [1], 3.98 nM in series [2] and 12.6 nM in [3].

For `Cc1ccc2c(OCCN3CCC(Cc4cccc(NS(C)(=O)=O)c4)CC3)cccc2n1`, the Intrinsic activity came to 0.3 in series [4], 0 in series [5] and 0 in series [6].

As usually defined, the CLint scaled is the capacity of the preparation to metabolise the compound, expressed as a volume cleared per time. Usually Cmax stands for the maximum level reached in the sampled fluid or tissue. What is called half-life is how long it takes for the measured level to halve. Higher therefore signals slow loss. The clearance is a measure of how efficiently the substance is removed, as volume per time. With `Cc1ccc2c(OCCN3CCC(Cc4cccc(C5CCN(C)CC5)c4)CC3)cccc2n1`, the Ki in series [1] is 5.01 nM; in series [2], 0.2 nM; in series [3] it was 3.16 nM. In series [7], the result was Active. Besides, the CLint scaled in [8] is below 0.5 mL/min/kg; in series [10], 2 mL/min/kg. This compound also had a Cmax in series [9] of 34 ng/g. For the same compound, the Intrinsic activity in series [4] was found to be 0.3; in series [5] it was 0.4. In addition, the half-life in series [11] was 12 h. The Kp in series [12] worked out at 1.3. Also, the Vd in [13] is 12.4 L/kg. Besides, the clearance in [14] is 14 mL/min/kg.

As to `Cc1ccc2c(OCCN3CCC(Cc4cccc(N5CCN(C)CC5=O)c4)CC3)cccc2n1`, the inhibition constant Ki in series [1] was 63.1 nM; in series [2] it was 3.98 nM; in series [3], 20 nM.

Consider `Cc1ccc2c(OCCN3CCC(Cc4cccc(-c5ccccc5)c4)CC3)cccc2n1`, for which the inhibition constant Ki in [1] is 63.1 nM; in series [2] it was 7.94 nM; in [3], 63.1 nM.

As to `Cc1ccc2c(OCCN3CCC(Cc4cccc(-c5ccoc5)c4)CC3)cccc2n1`, the Ki was 39.8 nM in series [1], 6.31 nM in series [2] and 31.6 nM in series [3].

Take `Cc1ccc2c(OCCN3CCC(Cc4cccc(C5CCN(S(C)(=O)=O)CC5)c4)CC3)cccc2n1`: the values for the Ki in series [1], in [2] and in series [3] were 79.4 nM, 3.16 nM and 7.94 nM, respectively.

`Cc1ccc2c(OCCN3CCC(Cc4cccc(N5C[C@@H](C)N[C@@H](C)C5)c4)CC3)cccc2n1`: the Ki was 3.98 nM in [1], 0.794 nM in series [2] and 2 nM in series [3]. Moreover, the Intrinsic activity in series [4] stood at 0.3; in [5] it was 0.5; in series [6], 0.

With `Cc1ccc2c(OCCN3CCC(Cc4cccc(-c5cccnc5)c4)CC3)cccc2n1`, the Ki is 12.6 nM in [1], 2 nM in series [2] and 5.01 nM in series [3].

On to `Cc1ccc2c(OCCN3CCC(Cc4cccc(N5CCCCC5)c4)CC3)cccc2n1`, for which the Ki was 2 nM in series [1], 1 nM in [2] and 3.98 nM in series [3]. Besides, the Intrinsic activity in [4] worked out at 0.6; in [5], 0.7; in series [6] it was 0. In series [10], the CLint scaled is 6.2 mL/min/kg.

In the case of `Cc1ccc2c(OCCN3CCC(Cc4cccc(NC(=O)CN(C)C)c4)CC3)cccc2n1`, in series [7], the result was Active. In addition, the Intrinsic activity amounted to 0.2 in series [4] and 0.4 in [5].

`Cc1ccc2c(OCCN3CCC(Cc4cccc(N5CCN(C)CC5)c4)CC3)cccc2n1`: the Ki in [1] was 6.31 nM; in [2] it was 0.501 nM; in [3], 1 nM. In addition, the CLint scaled in [8] is 1.6 mL/min/kg; in [10], 2.9 mL/min/kg. In [9], this compound showed a peak concentration (Cmax) of 85 ng/g. Moreover, the Intrinsic activity in series [4] stood at 0.3; in series [5] it was 0.4; in series [6], 0. Besides, the half-life in series [11] is 1.3 h. Further, in series [12], the Kp worked out at 18. Besides, the Vd in series [13] is 4.4 L/kg. The clearance in series [14] is 46 mL/min/kg.

For `Cc1ccc2c(OCCN3CCC(Cc4cccc(N5CCCN(C)CC5)c4)CC3)cccc2n1`, the inhibition constant Ki in series [1] was 7.94 nM; in [2], 0.631 nM; in series [3], 2.51 nM. The Intrinsic activity in series [4] worked out at 0.3; in series [5], 0.5; in series [6], 0. Moreover, the intrinsic metabolic clearance (CLint scaled) in series [10] came out at 26 mL/min/kg.

Take `Cc1ccc2c(OCCN3CCC(Cc4cccc(N5CCOCC5)c4)CC3)cccc2n1`: the figures for the inhibitory constant (Ki) in series [1], in series [2] and in series [3] were 126 nM, 2.51 nM and 5.01 nM, respectively. For the same compound, the Intrinsic activity in series [4] was 0.4; in series [5], 0.6; in [6], 0.

For the compound `Cc1ccc2c(OCCN3CCC(Cc4cccc(N5CCN[C@@H](C)C5)c4)CC3)cccc2n1`, the figures for the Ki in series [1], in series [2] and in series [3] were 15.8 nM, 1 nM and 3.98 nM, respectively. Further, the Intrinsic activity was 0.3 in [4], 0.5 in series [5] and 0 in series [6].

On to `Cc1ccc2c(OCCN3CCC(Cc4cccc(N5CCN(C)C(=O)C5)c4)CC3)cccc2n1`, for which the figures for the inhibition constant Ki in series [1], in series [2] and in [3] were 126 nM, 10 nM and 7.94 nM, respectively.

Consider `Cc1ccc2c(OCCN3CCC(Cc4cccc(N5C[C@@H](C)NC[C@@H]5C)c4)CC3)cccc2n1`, for which the Ki in [1] is 31.6 nM; in series [2] it was 1 nM; in series [3], 5.01 nM.

For the compound `Cc1ccc2c(OCCN3CCC(Cc4cccc(-c5ccncc5)c4)CC3)cccc2n1`, the Ki in series [1] was 7.94 nM; in series [2] it was 1 nM; in series [3], 7.94 nM.

In the case of `Cc1ccc2c(OCCN3CCC(Cc4cccc(N5CCN[C@H](C)C5)c4)CC3)cccc2n1`, the values for the Ki in series [1], in [2] and in [3] were 2 nM, 0.631 nM and 2.51 nM, respectively. Also, the values for the Intrinsic activity in series [4], in [5] and in series [6] were 0.3, 0.5 and 0, respectively.

Take `Cc1ccc2c(OCCN3CCC(Cc4cccc(N5C[C@@H](C)O[C@@H](C)C5)c4)CC3)cccc2n1`: the results for the Ki in series [1], in series [2] and in series [3] were 158 nM, 1.58 nM and 2.51 nM, respectively.

Take `Cc1ccc2c(OCCN3CCC(Cc4cccc(C5CCNCC5)c4)CC3)cccc2n1`: the Ki is 6.31 nM in series [1], 1.26 nM in series [2] and 6.31 nM in series [3].

As to `Cc1ccc2c(OCCN3CCC(Cc4cccc(N5CCCC5)c4)CC3)cccc2n1`, the Ki is 39.8 nM in [1], 2.51 nM in [2] and 10 nM in [3].
